Laboratory results published in US20240391885A1, “FORMS OF LINERIXIBAT” (GLAXOSMITHKLINE INTELLECTUAL PROPERTY (NO. 2) LIMITED, priority 2020, published 2024).
≈ marks a conversion by molar mass, not a printed value.

Key:
Assay type in all cases: physicochemical
[1] = Solubility of linerixibat drug substance over pH 1.2-6.8 at 37±1° C. (Experiment 8a); conditions: for solubility at 1 h / solubility at 4 h / solubility at 24 h: 37 °C, thermodynamic from solid; for solubility at 1 h: 1-hr timepoint; for solubility at 4 h: 4-hr timepoint; for solubility at 24 h: 24-hr timepoint
Protocol: The solubility of linerixibat drug substance, in respect of Form I and Form III, was determined over the pH range of 1.2-6.8 at 37±1° C. Eight pH values within this range, including buffers at pH 1.2, 4.5 and 6.8 were evaluated. The therapeutic dose for linerixibat is 40 mg.
• SGF=simulated gastric fluid • BR=Britton Robinson

[2] = Miniaturised shake flask solubility in Britton-Robinson buffers and biorelevant media (Experiment 8c); conditions: 37° C., 1, 4 and 24 hours; FIG. 25
Protocol: Solubility of Form I and Form III was also measured in Britton-Robinson buffers (pH 2-8), determined and compared using a standardised miniaturised shake flask method via an automated platform using a development HPLC method for quantification post centrifugation and filtration. Samples were run at 37° C. and performed as 2 replicate preparations for each pH condition and 4 replicate preparations for each biorelevant media condition at 1, 4 and 24 hours.

[3] = Polymorph screen, relative stability of forms; conditions: relative to the other forms identified from the form screen
Protocol: Form I of linerixibat, a non-solvated crystalline form that melts with decomposition at onset temperature about 206° C. and peak temperature about 209° C., was identified as the predominant form of linerixibat from a polymorph screen study. Amorphous linerixibat and Form I were used as input material for polymorph screen experiments. […] Form I was obtained from a variety of screening samples, and the solvents used include water, methanol, ethanol, acetone, acetonitrile and ethyl acetate.

[4] = Conversion of Form I to Form III under mechanical stress / tablet compression (13C SSNMR, XRPD); conditions: one manufacturing batch of Form I after the final (agitated) drying step; qualitative assessment by 13C SSNMR and XRPD
Excerpt: Upon investigation, this occurrence was attributed to a combination of a relatively large batch size in a smaller filter drier (agitated drying stage) resulting in the wet material being subjected to greater shear forces during agitation, causing some conversion of Form I to Form III. Conversion of Form I to Form III was also observed during tablet compression process. […] During formulation development, samples of the linerixibat compression blend were compacted in a device to mimic the full-scale tableting process. X-ray powder diffractograms (XRPD) were obtained on these “compacts.” As the compression force was increased, the XRPD pattern changed to give loss of intensity of some peaks and formation of other peaks. This indicated the presence of another solid state form, which was subsequently confirmed as Form III. […] The intensities of Form I and Form III peaks in the ^13C SSNMR spectrum qualitatively indicate similar populations of the two polymorphic forms in the sample of mixture. The ^13C SSNMR data were acquired using the same apparatus and conditions as Example 1e.
^13C SSNMR data for linerixibat tablets, 90 mg of Form I compressed with different forces to achieve three different tensile strengths 1.6 MPa, 2.4 MPa and 3.2 MPa, were collected. The ^13C SSNMR data were acquired using the same apparatus and conditions as Example 1e. […]

[5] = Solubility of drug substance samples in biorelevant media and sodium acetate buffer (Experiment 8b); conditions: for solubility at 1 h / solubility at 4 h / solubility at 24 h: thermodynamic from solid
Excerpt: Solubility data was obtained for drug substance samples of linerixibat Form I, linerixibat Form III, and additionally for a sample of Form I compressed to 100 MPa which therefore contained an amount of Form III, in order to replicate typical forces encountered during tablet manufacture.
The media used for the drug substance samples were biorelevant media likely to be experienced in the stomach and the intestine, namely Simulated Gastric Fluid (SGF) over an increasing pH range (1.6, 2.0 and 4.0) and Fasted State Simulated Intestinal Fluid (FaSSIF) at a pH of 6.5. Solubility data was also obtained in 50 mM sodium acetate buffer pH 4.5.

[6] = Britton Robinson buffer, pH 3, aqueous buffer, nominal pH 3.0, BR buffer
[7] = Britton Robinson buffer, pH 3.5, aqueous buffer, nominal pH 3.5, BR buffer
[8] = Britton Robinson buffer, pH 3.8, aqueous buffer, nominal pH 3.8, BR buffer
[9] = Britton Robinson buffer, pH 4, aqueous buffer, nominal pH 4.0, BR buffer
[10] = Britton Robinson buffer, pH 5, aqueous buffer, nominal pH 5.0, BR buffer
[11] = acetate buffer, pH 4.5, aqueous buffer, nominal pH 4.5, Acetate buffer
[12] = phosphate buffer, pH 6.8, aqueous buffer, nominal pH 6.8, Phosphate buffer
[13] = simulated gastric fluid (SGF), pH 1.2, simulated gastric fluid, nominal pH 1.2, SGF

- solubility at 1 h [1, 6]: 178 µg/mL (≈ 326 µM)
- solubility at 4 h [1, 6]: 198 µg/mL (≈ 362 µM)
- solubility at 24 h [1, 6]: 232 µg/mL (≈ 424 µM)
- solubility at 1 h [1, 7]: 99 µg/mL (≈ 181 µM)
- solubility at 4 h [1, 7]: 110 µg/mL (≈ 201 µM)
- solubility at 24 h [1, 7]: 128 µg/mL (≈ 234 µM)
- solubility at 1 h [1, 8]: 104 µg/mL (≈ 190 µM)
- solubility at 4 h [1, 8]: 113 µg/mL (≈ 207 µM)
- solubility at 24 h [1, 8]: 131 µg/mL (≈ 240 µM)
- solubility at 1 h [1, 9]: 118 µg/mL (≈ 216 µM)
- solubility at 4 h [1, 9]: 125 µg/mL (≈ 229 µM)
- solubility at 24 h [1, 9]: 146 µg/mL (≈ 267 µM)
- solubility at 1 h [1, 10]: 393 µg/mL (≈ 719 µM)
- solubility at 4 h [1, 10]: 491 µg/mL (≈ 898 µM)
- solubility at 24 h [1, 10]: 650 µg/mL (≈ 1190 µM)
- solubility at 1 h [1, 11]: 190 µg/mL (≈ 348 µM)
- solubility at 4 h [1, 11]: 214 µg/mL (≈ 391 µM)
- solubility at 24 h [1, 11]: 293 µg/mL (≈ 536 µM)
- solubility classification ([1]; all pHs in the physiological range except close to the solubility minimum (between pH 3.2 and pH 4.2), high solubility = above 0.16 mg/mL (40 mg in 250 mL)): highly soluble
- difference in solubility between Form I and Form III ([1]; pH 1.2-6.8, 37±1° C.): no significant difference
- solubility at 1 h [1, 12]: > 1000 µg/mL
- solubility at 4 h [1, 12]: > 1000 µg/mL
- solubility at 24 h [1, 12]: > 1000 µg/mL
- solubility at 1 h [1, 13]: > 1000 µg/mL
- solubility at 4 h [1, 13]: > 1000 µg/mL
- solubility at 24 h [1, 13]: > 1000 µg/mL
- solubility comparison in biorelevant media [2]: very similar
- relative stability of the form [3]: most stable form
- Form III content [4]: ≤ 10 % w/w
- solubility at 1 h ([5]; 50 mM sodium acetate buffer, pH 4.5, aqueous buffer, 50 mM Sodium Acetate Buffer pH 4.5, 1 Hour): 270 µg/mL (≈ 494 µM)
- solubility at 4 h ([5]; 50 mM sodium acetate buffer, pH 4.5, aqueous buffer, 50 mM Sodium Acetate Buffer pH 4.5, 4 Hours): 280 µg/mL (≈ 512 µM)
- solubility at 24 h ([5]; 50 mM sodium acetate buffer, pH 4.5, aqueous buffer, 50 mM Sodium Acetate Buffer pH 4.5, 24 Hours): 300 µg/mL (≈ 549 µM)
- solubility at 1 h ([5]; Fasted State Simulated Intestinal Fluid (FaSSIF), pH 6.5, fassif, FaSSIF pH 6.5, 1 Hour): 5080 µg/mL (≈ 9290 µM)
- solubility at 4 h ([5]; Fasted State Simulated Intestinal Fluid (FaSSIF), pH 6.5, fassif, FaSSIF pH 6.5, 4 Hours): 5110 µg/mL (≈ 9350 µM)
- solubility at 24 h ([5]; Fasted State Simulated Intestinal Fluid (FaSSIF), pH 6.5, fassif, FaSSIF pH 6.5, 24 Hours): 5310 µg/mL (≈ 9710 µM)
- solubility at 1 h ([5]; Simulated Gastric Fluid (SGF), pH 1.6, simulated gastric fluid, SGF pH 1.6, 1 Hour): 7200 µg/mL (≈ 13200 µM)
- solubility at 4 h ([5]; Simulated Gastric Fluid (SGF), pH 1.6, simulated gastric fluid, SGF pH 1.6, 4 Hours): 7390 µg/mL (≈ 13500 µM)
- solubility at 24 h ([5]; Simulated Gastric Fluid (SGF), pH 1.6, simulated gastric fluid, SGF pH 1.6, 24 Hours): 7910 µg/mL (≈ 14500 µM)
- solubility at 1 h ([5]; Simulated Gastric Fluid (SGF), pH 2, simulated gastric fluid, SGF pH 2.0, 1 Hour): 1490 µg/mL (≈ 2730 µM)
- solubility at 4 h ([5]; Simulated Gastric Fluid (SGF), pH 2, simulated gastric fluid, SGF pH 2.0, 4 Hours): 1530 µg/mL (≈ 2800 µM)
- solubility at 24 h ([5]; Simulated Gastric Fluid (SGF), pH 2, simulated gastric fluid, SGF pH 2.0, 24 Hours): 1620 µg/mL (≈ 2960 µM)
- solubility at 1 h ([5]; Simulated Gastric Fluid (SGF), pH 4, simulated gastric fluid, SGF pH 4.0, 1 Hour): 150 µg/mL (≈ 274 µM)
- solubility at 4 h ([5]; Simulated Gastric Fluid (SGF), pH 4, simulated gastric fluid, SGF pH 4.0, 4 Hours): 150 µg/mL (≈ 274 µM)
- solubility at 24 h ([5]; Simulated Gastric Fluid (SGF), pH 4, simulated gastric fluid, SGF pH 4.0, 24 Hours): 160 µg/mL (≈ 293 µM)
SMILES: CCCC[C@]1(CC)CS(=O)(=O)c2cc(CNC(CC(=O)O)CC(=O)O)c(OC)cc2[C@@H](c2ccccc2)N1 [Form I]
- solubility comparison of the forms ([5]; all investigated physiologically relevant pH values (1.6 to 6.5)): Forms I and III have very similar solubilities at all investigated physiologically
